According to article PMC8632988, “Inhibition of SYK and cSrc kinases can protect bone and cartilage in preclinical models of osteoarthritis and rheumatoid arthritis” (Scientific Reports, 2021):
Read-outs that look alike come from different tables or passages of the source.

Legend:
Assay in all cases: Kinase selectivity profile assay
Type in all cases: biochemical
CK1a1 = molecular target: T1, CK1a1 (Homo sapiens, UniProt P48729); settings: 500 nM; relative to DMSO; read-out: Residual enzymatic activity
T1 construct: purchased Reaction Biology Corporation
Experimental: (§1) The activity of MT-SYK-03 against cSrc kinase and selectivity profile towards other 341 kinases was determined at Reaction Biology Corporation (Malvern, PA, USA) using the standard kinase assay protocol. […]; unbound phosphate was removed by extensive washing of filters in phosphoric acid. Kinase activity data was expressed as the percent remaining kinase activity in test samples compared to vehicle (dimethyl sulfoxide) reactions based on the radioactivity of reaction products (see Table S2). Experiment was replicated twice.

PKAcg = molecular target: T2, PKAcg (Homo sapiens, UniProt P22612); settings: 500 nM; relative to DMSO; read-out: Residual enzymatic activity
T2 construct: purchased Reaction Biology Corporation
Experimental: as §1

PIM3 = molecular target: T3, PIM3 (Homo sapiens, UniProt Q86V86); settings: 500 nM; relative to DMSO; read-out: Residual enzymatic activity
T3 construct: purchased Reaction Biology Corporation
Experimental: as §1

SRPK1 = molecular target: T4, SRPK1 (Homo sapiens, UniProt Q96SB4); settings: 500 nM; relative to DMSO; read-out: Residual enzymatic activity
T4 construct: purchased Reaction Biology Corporation
Experimental: as §1

LCK2/ICK = molecular target: T5, LCK2/ICK (Homo sapiens, UniProt Q9UPZ9); settings: 500 nM; relative to DMSO; read-out: Residual enzymatic activity
T5 construct: purchased Reaction Biology Corporation
Experimental: as §1

MEKK2 = molecular target: T6, MEKK2 (Homo sapiens, UniProt Q9Y2U5); settings: 500 nM; relative to DMSO; read-out: Residual enzymatic activity
T6 construct: purchased Reaction Biology Corporation
T6 sequence (Q9Y2U5 whole entry): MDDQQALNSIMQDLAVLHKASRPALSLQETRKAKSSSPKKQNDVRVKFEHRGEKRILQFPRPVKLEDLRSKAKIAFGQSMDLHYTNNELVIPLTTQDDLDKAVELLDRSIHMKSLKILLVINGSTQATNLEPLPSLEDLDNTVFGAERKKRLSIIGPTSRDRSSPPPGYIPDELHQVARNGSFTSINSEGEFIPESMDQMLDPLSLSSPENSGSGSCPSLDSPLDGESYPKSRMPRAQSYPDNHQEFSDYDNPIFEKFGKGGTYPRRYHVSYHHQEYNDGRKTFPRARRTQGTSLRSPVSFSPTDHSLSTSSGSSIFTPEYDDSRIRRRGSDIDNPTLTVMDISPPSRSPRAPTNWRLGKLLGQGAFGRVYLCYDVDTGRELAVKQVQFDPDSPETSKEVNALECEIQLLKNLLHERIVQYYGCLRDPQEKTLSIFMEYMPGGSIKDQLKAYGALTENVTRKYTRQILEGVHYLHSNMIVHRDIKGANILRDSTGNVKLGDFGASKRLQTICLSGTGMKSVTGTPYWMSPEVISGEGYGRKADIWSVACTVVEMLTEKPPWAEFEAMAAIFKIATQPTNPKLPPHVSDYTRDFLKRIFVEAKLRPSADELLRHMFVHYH
Experimental: as §1

IRR/INSRR = molecular target: T7, IRR/INSRR (Homo sapiens, UniProt P14616); settings: 500 nM; relative to DMSO; read-out: Residual enzymatic activity
T7 construct: purchased Reaction Biology Corporation
T7 sequence (P14616 27-1297): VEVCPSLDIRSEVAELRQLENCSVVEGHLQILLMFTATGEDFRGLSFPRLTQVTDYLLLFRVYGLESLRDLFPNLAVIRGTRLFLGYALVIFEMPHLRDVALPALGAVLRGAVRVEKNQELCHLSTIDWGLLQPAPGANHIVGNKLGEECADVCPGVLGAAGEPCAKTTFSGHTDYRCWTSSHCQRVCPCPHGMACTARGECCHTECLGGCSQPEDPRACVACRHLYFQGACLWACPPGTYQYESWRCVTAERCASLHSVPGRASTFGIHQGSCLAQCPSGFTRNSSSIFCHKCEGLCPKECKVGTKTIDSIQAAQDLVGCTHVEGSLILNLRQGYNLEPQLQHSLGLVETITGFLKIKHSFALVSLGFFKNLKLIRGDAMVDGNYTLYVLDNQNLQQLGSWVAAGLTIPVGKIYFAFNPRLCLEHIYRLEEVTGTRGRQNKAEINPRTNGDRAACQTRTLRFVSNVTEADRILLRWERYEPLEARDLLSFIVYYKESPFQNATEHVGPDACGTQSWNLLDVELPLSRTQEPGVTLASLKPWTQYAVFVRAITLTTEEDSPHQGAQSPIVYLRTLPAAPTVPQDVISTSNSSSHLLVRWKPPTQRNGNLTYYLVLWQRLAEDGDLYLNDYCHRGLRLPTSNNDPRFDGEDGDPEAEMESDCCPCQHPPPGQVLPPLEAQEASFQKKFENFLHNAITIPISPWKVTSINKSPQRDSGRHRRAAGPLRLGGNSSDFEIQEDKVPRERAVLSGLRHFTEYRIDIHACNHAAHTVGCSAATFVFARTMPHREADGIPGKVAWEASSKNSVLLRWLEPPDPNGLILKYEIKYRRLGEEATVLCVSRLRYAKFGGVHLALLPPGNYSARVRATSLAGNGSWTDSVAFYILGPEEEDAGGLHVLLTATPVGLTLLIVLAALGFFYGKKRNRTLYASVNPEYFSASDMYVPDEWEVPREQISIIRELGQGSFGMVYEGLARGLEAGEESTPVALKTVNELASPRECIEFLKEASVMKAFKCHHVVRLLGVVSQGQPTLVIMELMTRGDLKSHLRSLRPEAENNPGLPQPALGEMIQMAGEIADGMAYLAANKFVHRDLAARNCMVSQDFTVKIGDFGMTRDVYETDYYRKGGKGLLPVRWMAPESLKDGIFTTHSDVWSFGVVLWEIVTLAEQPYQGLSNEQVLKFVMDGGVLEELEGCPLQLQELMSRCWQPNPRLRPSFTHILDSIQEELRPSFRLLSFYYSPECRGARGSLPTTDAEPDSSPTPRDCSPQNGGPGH
Experimental: as §1

CDK4/cyclin D1 = molecular target: T8, CDK4/cyclin D1 (Homo sapiens, UniProt P11802); settings: read-out: Residual enzymatic activity
T8 construct: purchased Reaction Biology Corporation
Experimental: as §1

FGFR4 = molecular target: T9, FGFR4 (Homo sapiens, UniProt P22455); settings: 500 nM, relative to DMSO
T9 construct: purchased Reaction Biology Corporation
Experimental: as §1

GRK7 = molecular target: T10, GRK7 (Homo sapiens, UniProt Q8WTQ7); settings: 500 nM; relative to DMSO; read-out: Residual enzymatic activity
T10 construct: purchased Reaction Biology Corporation
Experimental: as §1

TRKA = molecular target: T11, TRKA (Homo sapiens, UniProt P04629); settings: 500 nM; relative to DMSO; read-out: Residual enzymatic activity
T11 construct: purchased Reaction Biology Corporation
Experimental: as §1

PKCmu/PRKD1 = molecular target: T12, PKCmu/PRKD1 (Homo sapiens, UniProt Q15139); settings: 500 nM; relative to DMSO; read-out: Residual enzymatic activity
T12 construct: purchased Reaction Biology Corporation
T12 sequence (Q15139 whole entry): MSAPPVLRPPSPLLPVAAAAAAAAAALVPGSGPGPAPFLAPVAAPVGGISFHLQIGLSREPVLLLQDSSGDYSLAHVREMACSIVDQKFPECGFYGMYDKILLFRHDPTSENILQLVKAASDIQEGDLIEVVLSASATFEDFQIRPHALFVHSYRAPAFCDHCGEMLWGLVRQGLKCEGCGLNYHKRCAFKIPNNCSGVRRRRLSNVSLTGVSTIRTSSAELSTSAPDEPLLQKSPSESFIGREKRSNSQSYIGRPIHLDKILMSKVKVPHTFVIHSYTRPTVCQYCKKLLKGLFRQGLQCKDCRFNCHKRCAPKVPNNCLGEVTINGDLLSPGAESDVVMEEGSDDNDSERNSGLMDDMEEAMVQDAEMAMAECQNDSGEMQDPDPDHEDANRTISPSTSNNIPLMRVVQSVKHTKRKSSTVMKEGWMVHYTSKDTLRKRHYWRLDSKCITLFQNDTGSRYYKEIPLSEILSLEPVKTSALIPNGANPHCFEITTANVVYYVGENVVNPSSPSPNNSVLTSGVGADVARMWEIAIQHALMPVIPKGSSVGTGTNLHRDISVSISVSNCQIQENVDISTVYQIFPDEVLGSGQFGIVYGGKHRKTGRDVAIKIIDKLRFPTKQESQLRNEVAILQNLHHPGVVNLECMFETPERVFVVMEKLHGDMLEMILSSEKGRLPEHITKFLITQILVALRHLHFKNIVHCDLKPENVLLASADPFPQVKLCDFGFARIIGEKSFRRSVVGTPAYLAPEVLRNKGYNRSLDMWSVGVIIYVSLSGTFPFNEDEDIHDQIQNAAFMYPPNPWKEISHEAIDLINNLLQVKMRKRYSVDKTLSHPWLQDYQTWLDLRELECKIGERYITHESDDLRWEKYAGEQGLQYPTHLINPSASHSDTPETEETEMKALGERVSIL
Experimental: as §1

FGR = molecular target: T13, FGR (Homo sapiens, UniProt P09769); settings: for remaining activity at 0.5 µM: 500 nM, relative to DMSO, read-out: Residual enzymatic activity
T13 construct: purchased Reaction Biology Corporation (assay service)
T13 sequence (P09769 whole entry): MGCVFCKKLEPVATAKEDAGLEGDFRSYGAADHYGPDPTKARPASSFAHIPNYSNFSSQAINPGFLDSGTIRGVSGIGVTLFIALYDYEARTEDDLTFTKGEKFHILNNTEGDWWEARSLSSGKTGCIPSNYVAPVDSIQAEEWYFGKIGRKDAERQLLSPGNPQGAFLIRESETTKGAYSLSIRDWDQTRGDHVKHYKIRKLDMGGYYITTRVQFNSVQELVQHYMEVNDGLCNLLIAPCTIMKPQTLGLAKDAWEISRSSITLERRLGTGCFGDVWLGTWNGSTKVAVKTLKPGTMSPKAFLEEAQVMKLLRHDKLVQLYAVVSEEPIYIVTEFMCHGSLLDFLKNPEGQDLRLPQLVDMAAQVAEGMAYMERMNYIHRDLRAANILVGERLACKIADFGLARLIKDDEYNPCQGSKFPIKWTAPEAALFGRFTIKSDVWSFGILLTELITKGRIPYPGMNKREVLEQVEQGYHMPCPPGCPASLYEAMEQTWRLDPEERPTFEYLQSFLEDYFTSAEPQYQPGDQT
Experimental: as §1

DMPK = molecular target: T14, DMPK (Homo sapiens, UniProt Q09013); settings: 500 nM; relative to DMSO; read-out: Residual enzymatic activity
T14 construct: purchased Reaction Biology Corporation
Experimental: as §1

PKCnu/PRKD3 = molecular target: T15, PKCnu/PRKD3 (Homo sapiens, UniProt O94806); settings: 500 nM; relative to DMSO; read-out: Residual enzymatic activity
T15 construct: purchased Reaction Biology Corporation
T15 sequence (O94806 whole entry): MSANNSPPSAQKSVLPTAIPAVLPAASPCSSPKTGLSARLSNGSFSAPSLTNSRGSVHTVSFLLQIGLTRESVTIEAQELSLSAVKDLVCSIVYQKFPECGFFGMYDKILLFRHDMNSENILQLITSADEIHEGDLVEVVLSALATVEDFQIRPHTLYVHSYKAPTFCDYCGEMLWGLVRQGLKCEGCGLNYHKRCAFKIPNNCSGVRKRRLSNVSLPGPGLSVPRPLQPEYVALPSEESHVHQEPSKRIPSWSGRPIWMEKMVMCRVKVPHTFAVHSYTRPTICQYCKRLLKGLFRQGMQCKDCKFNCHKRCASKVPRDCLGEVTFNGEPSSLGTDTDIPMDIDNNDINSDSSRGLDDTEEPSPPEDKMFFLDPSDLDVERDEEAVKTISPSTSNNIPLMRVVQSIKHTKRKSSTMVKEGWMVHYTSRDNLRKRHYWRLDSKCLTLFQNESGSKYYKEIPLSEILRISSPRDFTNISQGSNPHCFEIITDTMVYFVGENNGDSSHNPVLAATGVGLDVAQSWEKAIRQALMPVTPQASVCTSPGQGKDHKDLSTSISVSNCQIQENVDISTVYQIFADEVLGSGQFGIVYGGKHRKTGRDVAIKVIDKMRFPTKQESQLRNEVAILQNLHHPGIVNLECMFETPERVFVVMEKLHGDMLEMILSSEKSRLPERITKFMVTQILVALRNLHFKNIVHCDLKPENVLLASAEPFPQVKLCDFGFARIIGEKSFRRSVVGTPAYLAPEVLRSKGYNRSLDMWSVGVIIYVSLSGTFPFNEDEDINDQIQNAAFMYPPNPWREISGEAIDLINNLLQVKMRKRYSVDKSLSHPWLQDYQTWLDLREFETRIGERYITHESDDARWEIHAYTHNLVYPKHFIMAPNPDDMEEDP
Experimental: as §1

ALK = molecular target: T16, ALK (Homo sapiens, UniProt Q9UM73); settings: 500 nM; relative to DMSO; read-out: Residual enzymatic activity
T16 construct: purchased Reaction Biology Corporation
Experimental: as §1

GRK5 = molecular target: T17, GRK5 (Homo sapiens, UniProt P34947); settings: 500 nM; relative to DMSO; read-out: Residual enzymatic activity
T17 construct: purchased Reaction Biology Corporation
Experimental: as §1

EPHA6 = molecular target: T18, EPHA6 (Homo sapiens, UniProt Q9UF33); settings: 500 nM, relative to DMSO; for remaining activity at 0.5 µM: read-out: Residual enzymatic activity
T18 construct: purchased Reaction Biology Corporation
T18 sequence (Q9UF33 23-1036): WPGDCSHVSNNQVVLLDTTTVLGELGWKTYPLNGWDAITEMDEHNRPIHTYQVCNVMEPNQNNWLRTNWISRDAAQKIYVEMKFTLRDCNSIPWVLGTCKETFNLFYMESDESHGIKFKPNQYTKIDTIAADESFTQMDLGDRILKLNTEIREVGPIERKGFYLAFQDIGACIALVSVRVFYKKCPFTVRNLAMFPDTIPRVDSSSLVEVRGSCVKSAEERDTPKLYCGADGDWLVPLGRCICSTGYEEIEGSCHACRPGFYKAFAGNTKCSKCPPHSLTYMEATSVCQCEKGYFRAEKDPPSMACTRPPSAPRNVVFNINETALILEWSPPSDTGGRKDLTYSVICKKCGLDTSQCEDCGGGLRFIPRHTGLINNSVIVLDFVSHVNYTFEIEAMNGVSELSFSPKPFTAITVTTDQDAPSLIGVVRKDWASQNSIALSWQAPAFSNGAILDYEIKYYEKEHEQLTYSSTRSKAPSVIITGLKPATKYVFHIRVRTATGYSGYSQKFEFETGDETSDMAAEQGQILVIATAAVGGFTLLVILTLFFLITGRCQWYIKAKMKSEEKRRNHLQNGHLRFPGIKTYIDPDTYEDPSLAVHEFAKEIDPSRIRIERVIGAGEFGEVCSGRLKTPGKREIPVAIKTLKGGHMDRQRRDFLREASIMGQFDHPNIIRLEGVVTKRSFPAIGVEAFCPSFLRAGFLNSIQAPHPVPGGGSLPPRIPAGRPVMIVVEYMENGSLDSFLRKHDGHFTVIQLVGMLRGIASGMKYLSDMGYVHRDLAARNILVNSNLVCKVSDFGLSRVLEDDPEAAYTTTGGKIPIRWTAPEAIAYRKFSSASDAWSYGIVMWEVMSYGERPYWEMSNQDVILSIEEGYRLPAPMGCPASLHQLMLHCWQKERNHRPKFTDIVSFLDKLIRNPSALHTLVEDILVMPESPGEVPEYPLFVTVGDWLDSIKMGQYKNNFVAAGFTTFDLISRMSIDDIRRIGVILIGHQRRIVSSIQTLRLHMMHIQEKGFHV
Experimental: as §1

NEK6 = molecular target: T19, NEK6 (Homo sapiens, UniProt Q9HC98); settings: 500 nM; relative to DMSO; read-out: Residual enzymatic activity
T19 construct: purchased Reaction Biology Corporation
Experimental: as §1

CSK = molecular target: T20, CSK (Homo sapiens, UniProt P41240); settings: for remaining activity at 0.5 µM: 500 nM, relative to DMSO, read-out: Residual enzymatic activity
T20 construct: purchased Reaction Biology Corporation (assay service)
T20 sequence (P41240 whole entry): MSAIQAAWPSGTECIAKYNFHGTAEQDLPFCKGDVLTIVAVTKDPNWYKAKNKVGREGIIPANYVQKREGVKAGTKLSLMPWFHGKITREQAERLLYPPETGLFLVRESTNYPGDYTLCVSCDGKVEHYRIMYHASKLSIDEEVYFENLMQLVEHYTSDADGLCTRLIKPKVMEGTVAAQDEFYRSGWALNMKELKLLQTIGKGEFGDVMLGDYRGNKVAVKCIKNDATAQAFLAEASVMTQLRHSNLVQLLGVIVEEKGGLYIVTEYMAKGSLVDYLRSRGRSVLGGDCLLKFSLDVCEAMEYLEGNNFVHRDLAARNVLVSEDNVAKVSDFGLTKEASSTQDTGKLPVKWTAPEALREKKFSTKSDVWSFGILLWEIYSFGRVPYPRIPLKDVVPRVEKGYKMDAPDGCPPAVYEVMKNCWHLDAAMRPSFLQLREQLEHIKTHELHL
Experimental: as §1

CAMKK2 = molecular target: T21, CAMKK2 (Homo sapiens, UniProt Q96RR4); settings: 500 nM; relative to DMSO; read-out: Residual enzymatic activity
T21 construct: purchased Reaction Biology Corporation
Experimental: as §1

PHKg1 = molecular target: T22, PHKg1 (Homo sapiens, UniProt Q16816); settings: 500 nM; relative to DMSO; read-out: Residual enzymatic activity
T22 construct: purchased Reaction Biology Corporation
T22 sequence (Q16816 whole entry): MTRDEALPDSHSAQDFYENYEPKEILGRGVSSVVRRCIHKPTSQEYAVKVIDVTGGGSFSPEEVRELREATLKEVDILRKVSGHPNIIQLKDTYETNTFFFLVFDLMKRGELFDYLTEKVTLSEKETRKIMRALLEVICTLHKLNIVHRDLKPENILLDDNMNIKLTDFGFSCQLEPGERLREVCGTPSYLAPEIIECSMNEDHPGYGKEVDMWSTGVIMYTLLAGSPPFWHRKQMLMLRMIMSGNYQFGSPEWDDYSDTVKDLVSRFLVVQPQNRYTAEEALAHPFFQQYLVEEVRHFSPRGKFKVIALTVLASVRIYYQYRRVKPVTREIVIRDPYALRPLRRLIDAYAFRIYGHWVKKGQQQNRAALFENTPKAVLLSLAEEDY
Experimental: as §1

BRAF = molecular target: T23, BRAF (Homo sapiens, UniProt P15056); settings: 500 nM; relative to DMSO; read-out: Residual enzymatic activity
T23 construct: purchased Reaction Biology Corporation
Experimental: as §1

AXL = molecular target: T24, AXL (Homo sapiens, UniProt P30530); settings: 500 nM; relative to DMSO; read-out: Residual enzymatic activity
T24 construct: purchased Reaction Biology Corporation
Experimental: as §1

EPHA8 = molecular target: T25, EPHA8 (Homo sapiens, UniProt P29322); settings: 500 nM, relative to DMSO
T25 construct: purchased Reaction Biology Corporation
Experimental: as §1

ULK3 = molecular target: T26, ULK3 (Homo sapiens, UniProt Q6PHR2); settings: 500 nM; relative to DMSO; read-out: Residual enzymatic activity
T26 construct: purchased Reaction Biology Corporation
Experimental: as §1

PLK1 = molecular target: T27, PLK1 (Homo sapiens, UniProt P53350); settings: 500 nM; relative to DMSO; read-out: Residual enzymatic activity
T27 construct: purchased Reaction Biology Corporation
Experimental: as §1

[1] = 10-dose mode, threefold serial dilution from 10 μM
[2] = read-out: Residual enzymatic activity

Structure (SMILES) | remaining activity at 0.5 µM (CK1a1) | remaining activity at 0.5 µM (PKAcg) | remaining activity at 0.5 µM (PIM3) | remaining activity at 0.5 µM (SRPK1) | remaining activity at 0.5 µM (LCK2/ICK) | remaining activity at 0.5 µM (MEKK2) | remaining activity at 0.5 µM (IRR/INSRR) | remaining activity at 0.5 µM (GRK7) | remaining activity at 0.5 µM (TRKA) | remaining activity at 0.5 µM (PKCmu/PRKD1) | remaining activity at 0.5 µM (FGR) | remaining activity at 0.5 µM (DMPK) | remaining activity at 0.5 µM (PKCnu/PRKD3) | remaining activity at 0.5 µM (ALK) | remaining activity at 0.5 µM (GRK5) | remaining activity at 0.5 µM (EPHA6) | remaining activity at 0.5 µM (NEK6) | remaining activity at 0.5 µM (CSK) | remaining activity at 0.5 µM (CAMKK2) | remaining activity at 0.5 µM (PHKg1) | further results
COc1cc(Nc2ncnc(Nc3cc4c(cn3)NC(=O)C(C)(C)O4)n2)cc(OC)c1OC [MT-SYK-03] | 101% | 106% | 98.8% | 108% | 110% | 106% | 89% | 99.7% | 82.5% | 98.5% | 22.6% | 94.3% | 99.9% | 96.5% | 103% | > 54% | 103% | 34.8% | 97.2% | 97.1% | remaining activity at 0.5 µM (CDK4/cyclin D1; 500 nM, relative to DMSO): 109%; Residual enzymatic activity (FGFR4): 95.7%; IC50 (FGR; [1]): 9 nM; Residual enzymatic activity (EPHA6): 73.9%; IC50 (CSK; [1]): 238 nM; remaining activity at 0.5 µM (BRAF): 86.7%; remaining activity at 0.5 µM (AXL): 74.3%; Residual enzymatic activity (EPHA8): 99.7%; remaining activity at 0.5 µM (ULK3): 74.9%; remaining activity at 0.5 µM (PLK1): 93.4%
COc1cc(Nc2ncc(F)c(Nc3ccc4c(n3)NC(=O)C(C)(C)O4)n2)cc(OC)c1OC [R406, reference compound] | 95.5% | 91.7% | 82.8% | 101% | 99.8% | 56.8% | 73.6% | 89.6% | 25.7% | 82.1% | 15.7% | 90.5% | 72.8% | 41.2% | 96.4% | 24.9% | 70.5% | 20.6% | 88.8% | 61.5% | remaining activity at 0.5 µM (CDK4/cyclin D1): 104%; remaining activity at 0.5 µM (FGFR4; [2]): 58%; remaining activity at 0.5 µM (BRAF): 95.9%; remaining activity at 0.5 µM (AXL): 44.5%; remaining activity at 0.5 µM (EPHA8; [2]): 92.6%; remaining activity at 0.5 µM (ULK3): 20.3%; remaining activity at 0.5 µM (PLK1): 60.4%
